Experimental data published in US5637501A, “Apparatus for automatically testing the antibiotic sensitivity of a paraffinophilic microorganism” (Infectech, Inc., priority 1995, dated 1997).
Like-named read-outs stand apart in the source and are kept apart here.

Test system: MAI
Assay: antibiotic sensitivity (MIC) of MAI strains, paraffin slide culture and microliter assays
Type: cell-based, Mycobacterium avium-intracellulare
Set-up: key: NG: No Growth
Source text: The present invention has met the above-described need. In one embodiment, it provides a method of automatically testing the sensitivity of a paraffinophilic microorganism to different antimicrobial agents, such as antibiotics, and concentrations thereof, by providing a plurality of receptacles, each containing an amount of liquid medium, an antimicrobial agent to be tested and the microorganism to be tested. In each of the receptacles is placed a slide containing a paraffin source. The receptacles are then incubated, after which a light scatter sensing means automatically and sequentially monitors the extent of microorganism growth on the slides. The extent of colony growth is employed to determine which antimicrobial agent in which concentration is effective to resist growth of the microorganism. A preferred light scatter sensing means is a nephelometer.
Referring specifically to FIG. 1, there is shown a preferred embodiment of the present invention usable in a method of automatically testing the sensitivity of a pure culture of a microorganism to different antimicrobial agents and concentrations thereof. In this embodiment, a microorganism, which may have been previously speciated as by the technique taught in U.S. Pat. No. 5,153, 119, has been introduced into a plurality of receptacles, each containing an amount of liquid medium and antimicrobial agent to be tested. A paraffin slide is introduced into each of the receptacles which are subsequently incubated. The receptacles 2-22 (even numbers only) are fixedly secured to an elongated, substantially rigid movable carrier member 26, such that the receptacles 2-22 will be translated therewith in the direction shown by the arrow A. The carrier member 26 may be made of any suitable material, such as aluminum, steel, stainless steel, or resinous plastic, for example. The receptacles 2-22, respectively, contain slides 32-52 (even numbers only). The slides 32-52 are fixedly secured, respectively, within receptacles 2-22 which may test tubes. The slides 32-52 are generally oriented so as to have their elongated direction aligned with the direction of travel of the carrier 26. As the carrier moves in the direction of arrow A, the slides 2-22 will sequentially be positioned in operative relationship to the light scatter sensing means which consists of light source 60, which directs a light beam toward light detector 62. In the preferred embodiment, a beam of visible light from light source 60 will impinge upon slide 32, with the growth of the microorganism thereon producing a corresponding scatter of light which is received by the light receiving sensor 62 and converts the received light into an appropriate output electrical signal which will be delivered to computer means 64. The computer means 64, in turn, provides output to output means 66, which may conveniently be a display, such as a cathode ray tube or a hard copy printer, for example. The degree of light scatter will be related to the extent of microorganism growth with light scatter increasing as growth on the slide increases.
The computer means 64 may be a general purpose digital microprocessor. It may be programmed in a manner readily known to those skilled in the art to sequentially compare the light scatter value of each slide 32-52 with that of a control slide and to provide an output to output means 66, such as a visual screen display or hard copy, with or without prior enhancement, which indicates the difference between the control slide and the specific slides containing the same pure culture of a paraffinophilic microorganism, but exposed to different concentrations of different or the same antimicrobial agents, such an antibiotics. In this manner, there is provided the minimal concentration level of a specific antimicrobial agent that must be used to control growth of the microorganism. Also, the minimum bactericidal concentration may be determined. […]

[1] = Table 2, Exp. Series I, strain 7

NCC[C@H](O)C(=O)N[C@@H]1C[C@H](N)[C@@H](O[C@H]2O[C@H](CN)[C@@H](O)[C@H](O)[C@H]2O)[C@H](O)[C@H]1O[C@H]1O[C@H](CO)[C@@H](O)[C@H](N)[C@H]1O [amikacin]
7 days: Days to Confluency (Table 2, Exp. Series I, strain 1) | Days to Confluency (Table 2, Exp. Series I, strain 2) | Days to Confluency (Table 2, Exp. Series I, strain 5) | Days to Confluency (Table 2, Exp. Series I, strain 6) | Days to Confluency (Table 2, Exp. Series I, strain 8) | Days to Confluency (Table 2, Exp. Series II, strain 1) | Days to Confluency (Table 2, Exp. Series II, strain 2) | Days to Confluency (Table 2, Exp. Series II, strain 8) | Days to Confluency (Table 2, Exp. Series III, strain 9)
9 days: Days to Confluency (Table 2, Exp. Series II, strain 3)
NG: Days to Confluency [1] | MIC [1]
8 days: Days to Confluency (Table 2, Exp. Series I, strain 3) | Days to Confluency (Table 2, Exp. Series I, strain 4) | Days to Confluency (Table 2, Exp. Series I, strain 9)
12 days: Days to Confluency (Table 2, Exp. Series III, strain 3)
5 days: Days to Confluency (Table 2, Exp. Series I, strain 11) | Days to Confluency (Table 2, Exp. Series I, strain 12) | Days to Confluency (Table 2, Exp. Series I, strain 14) | Days to Confluency (Table 2, Exp. Series I, strain 15) | Days to Confluency (Table 2, Exp. Series I, strain 16) | Days to Confluency (Table 2, Exp. Series II, strain 4) | Days to Confluency (Table 2, Exp. Series II, strain 5) | Days to Confluency (Table 2, Exp. Series II, strain 6) | Days to Confluency (Table 2, Exp. Series II, strain 7) | Days to Confluency (Table 2, Exp. Series III, strain 1) | Days to Confluency (Table 2, Exp. Series III, strain 2) | Days to Confluency (Table 2, Exp. Series III, strain 5) | Days to Confluency (Table 2, Exp. Series III, strain 6) | Days to Confluency (Table 2, Exp. Series III, strain 7) | Days to Confluency (Table 2, Exp. Series III, strain 8) | Days to Confluency (Table 2, Exp. Series III, strain 10) | Days to Confluency (Table 2, Exp. Series III, strain 11) | Days to Confluency (Table 2, Exp. Series III, strain 12) | Days to Confluency (Table 2, Exp. Series III, strain 14) | Days to Confluency (Table 2, Exp. Series III, strain 15) | Days to Confluency (Table 2, Exp. Series III, strain 16)
3.2 µg/mL: MIC (Mycobacterium avium-intracellulare, Table 2, Exp. Series I, strain 4, read-out: MIC) | MIC (Mycobacterium avium-intracellulare, Table 2, Exp. Series I, strain 12, read-out: MIC) | MIC (Mycobacterium avium-intracellulare, Table 2, Exp. Series I, strain 13, read-out: MIC) | MIC (Mycobacterium avium-intracellulare, Table 2, Exp. Series II, strain 5, read-out: MIC) | MIC (Mycobacterium avium-intracellulare, Table 2, Exp. Series II, strain 6, read-out: MIC) | MIC (Mycobacterium avium-intracellulare, Table 2, Exp. Series II, strain 9, read-out: MIC) | MIC (Mycobacterium avium-intracellulare, Table 2, Exp. Series III, strain 1, read-out: MIC) | MIC (Mycobacterium avium-intracellulare, Table 2, Exp. Series III, strain 2, read-out: MIC) | MIC (Mycobacterium avium-intracellulare, Table 2, Exp. Series III, strain 4, read-out: MIC) | MIC (Mycobacterium avium-intracellulare, Table 2, Exp. Series III, strain 5, read-out: MIC) | MIC (Mycobacterium avium-intracellulare, Table 2, Exp. Series III, strain 6, read-out: MIC) | MIC (Mycobacterium avium-intracellulare, Table 2, Exp. Series III, strain 8, read-out: MIC) | MIC (Mycobacterium avium-intracellulare, Table 2, Exp. Series III, strain 9, read-out: MIC) | MIC (Mycobacterium avium-intracellulare, Table 2, Exp. Series III, strain 10, read-out: MIC) | MIC (Mycobacterium avium-intracellulare, Table 2, Exp. Series III, strain 15, read-out: MIC) | MIC (Mycobacterium avium-intracellulare, Table 2, Exp. Series III, strain 16, read-out: MIC)
7.3 µg/mL: MIC (Mycobacterium avium-intracellulare, Table 2, Exp. Series I, strain 11, read-out: MIC)
9.6 µg/mL: MIC (Mycobacterium avium-intracellulare, Table 2, Exp. Series I, strain 14, read-out: MIC) | MIC (Mycobacterium avium-intracellulare, Table 2, Exp. Series II, strain 11, read-out: MIC) | MIC (Mycobacterium avium-intracellulare, Table 2, Exp. Series II, strain 13, read-out: MIC) | MIC (Mycobacterium avium-intracellulare, Table 2, Exp. Series II, strain 16, read-out: MIC)
12 µg/mL: MIC (Mycobacterium avium-intracellulare, Table 2, Exp. Series I, strain 6, read-out: MIC) | MIC (Mycobacterium avium-intracellulare, Table 2, Exp. Series I, strain 9, read-out: MIC) | MIC (Mycobacterium avium-intracellulare, Table 2, Exp. Series II, strain 2, read-out: MIC)
> 16 µg/mL: MIC (Mycobacterium avium-intracellulare, Table 2, Exp. Series I, strain 1, read-out: MIC) | MIC (Mycobacterium avium-intracellulare, Table 2, Exp. Series I, strain 2, read-out: MIC) | MIC (Mycobacterium avium-intracellulare, Table 2, Exp. Series I, strain 8, read-out: MIC) | MIC (Mycobacterium avium-intracellulare, Table 2, Exp. Series II, strain 1, read-out: MIC) | MIC (Mycobacterium avium-intracellulare, Table 2, Exp. Series II, strain 8, read-out: MIC) | MIC (Mycobacterium avium-intracellulare, Table 2, Exp. Series II, strain 14, read-out: MIC)
6.4 µg/mL: MIC (Mycobacterium avium-intracellulare, Table 2, Exp. Series I, strain 3, read-out: MIC) | MIC (Mycobacterium avium-intracellulare, Table 2, Exp. Series I, strain 5, read-out: MIC) | MIC (Mycobacterium avium-intracellulare, Table 2, Exp. Series I, strain 10, read-out: MIC) | MIC (Mycobacterium avium-intracellulare, Table 2, Exp. Series I, strain 15, read-out: MIC) | MIC (Mycobacterium avium-intracellulare, Table 2, Exp. Series I, strain 16, read-out: MIC) | MIC (Mycobacterium avium-intracellulare, Table 2, Exp. Series II, strain 3, read-out: MIC) | MIC (Mycobacterium avium-intracellulare, Table 2, Exp. Series II, strain 4, read-out: MIC) | MIC (Mycobacterium avium-intracellulare, Table 2, Exp. Series II, strain 7, read-out: MIC) | MIC (Mycobacterium avium-intracellulare, Table 2, Exp. Series II, strain 10, read-out: MIC) | MIC (Mycobacterium avium-intracellulare, Table 2, Exp. Series II, strain 12, read-out: MIC) | MIC (Mycobacterium avium-intracellulare, Table 2, Exp. Series II, strain 15, read-out: MIC) | MIC (Mycobacterium avium-intracellulare, Table 2, Exp. Series III, strain 3, read-out: MIC) | MIC (Mycobacterium avium-intracellulare, Table 2, Exp. Series III, strain 7, read-out: MIC) | MIC (Mycobacterium avium-intracellulare, Table 2, Exp. Series III, strain 11, read-out: MIC) | MIC (Mycobacterium avium-intracellulare, Table 2, Exp. Series III, strain 12, read-out: MIC) | MIC (Mycobacterium avium-intracellulare, Table 2, Exp. Series III, strain 13, read-out: MIC) | MIC (Mycobacterium avium-intracellulare, Table 2, Exp. Series III, strain 14, read-out: MIC)
6 days: Days to Confluency (Table 2, Exp. Series I, strain 10) | Days to Confluency (Table 2, Exp. Series I, strain 13) | Days to Confluency (Table 2, Exp. Series II, strain 9) | Days to Confluency (Table 2, Exp. Series II, strain 10) | Days to Confluency (Table 2, Exp. Series II, strain 11) | Days to Confluency (Table 2, Exp. Series II, strain 12) | Days to Confluency (Table 2, Exp. Series II, strain 13) | Days to Confluency (Table 2, Exp. Series II, strain 14) | Days to Confluency (Table 2, Exp. Series II, strain 15) | Days to Confluency (Table 2, Exp. Series II, strain 16) | Days to Confluency (Table 2, Exp. Series III, strain 4) | Days to Confluency (Table 2, Exp. Series III, strain 13)
